# Results as given in patent US20230017045A1, “PYRIDINE AND PYRIMIDINE CARBOXYLATE HERBICIDES AND METHODS OF USE THEREOF” (Dow AgroSciences LLC, priority 2017, published 2023).
# Test system: test plant species
# Test: Post-emergent herbicidal activity test (greenhouse, foliar spray, visual growth reduction)
# Assay type: in vivo
# Details: post-emergence, 336 h, ALOMY: blackgrass (Alopecurus myosuroides), 140 g ai/ha, 14 days after application, read-out: Visual Growth Reduction (%) 14 Days After Application, ALOMY
# Method in brief: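 Scoring used a 0 to 100 percent visual scale of growth reduction against solvent-treated controls, read 14 d after spraying. Applications went onto plants at first or second true leaf stage, 187 L/ha, with crop oil concentrate and X-77 surfactant in the carrier. Post-treatment watering was by subirrigation to avoid wash-off.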
row,SMILES,pest or weed control at 140 g/ha
1,"COC(=O)c1nc(-c2ccc(C(F)(F)F)cc2OC)ccc1Cl [F28, Methyl 3-chloro-6-(2-methoxy-4-(trifluoromethyl)phenyl)picolinate]",0 to 29%
2,"COC(=O)c1nc(-c2ccc(OC)cc2Cl)ccc1Cl [F35, Methyl 3-chloro-6-(2-chloro-4-methoxyphenyl) picolinate]",0 to 29%

# Same assay, conditions: post-emergence, 336 h, AMARE: redroot pigweed (Amaranthus retroflexus), 140 g ai/ha, 14 days after application, read-out: Visual Growth Reduction (%) 14 Days After Application, AMARE
row,SMILES,pest or weed control at 140 g/ha
1,"COC(=O)c1nc(-c2ccc(C(F)(F)F)cc2OC)ccc1Cl [F28, Methyl 3-chloro-6-(2-methoxy-4-(trifluoromethyl)phenyl)picolinate]",60 to 74%
2,"COC(=O)c1nc(-c2ccc(OC)cc2Cl)ccc1Cl [F35, Methyl 3-chloro-6-(2-chloro-4-methoxyphenyl) picolinate]",30 to 44%

# Same assay, conditions: post-emergence, 336 h, AVEFA: wild oat (Avena fatua), 140 g ai/ha, 14 days after application, read-out: Visual Growth Reduction (%) 14 Days After Application, AVEFA
row,SMILES,pest or weed control at 140 g/ha
1,"COC(=O)c1nc(-c2ccc(C(F)(F)F)cc2OC)ccc1Cl [F28, Methyl 3-chloro-6-(2-methoxy-4-(trifluoromethyl)phenyl)picolinate]",0 to 29%
2,"COC(=O)c1nc(-c2ccc(OC)cc2Cl)ccc1Cl [F35, Methyl 3-chloro-6-(2-chloro-4-methoxyphenyl) picolinate]",0 to 29%

# Same assay, conditions: post-emergence, 336 h, CHEAL: lambsquarters (Chenopodium album), 140 g ai/ha, 14 days after application, read-out: Visual Growth Reduction (%) 14 Days After Application, CHEAL
row,SMILES,pest or weed control at 140 g/ha
1,"COC(=O)c1nc(-c2ccc(C(F)(F)F)cc2OC)ccc1Cl [F28, Methyl 3-chloro-6-(2-methoxy-4-(trifluoromethyl)phenyl)picolinate]",60 to 74%
2,"COC(=O)c1nc(-c2ccc(OC)cc2Cl)ccc1Cl [F35, Methyl 3-chloro-6-(2-chloro-4-methoxyphenyl) picolinate]",0 to 29%

# Same assay, conditions: post-emergence, 336 h, CIRAR: canada thistle (Cirsium arvense), 140 g ai/ha, 14 days after application, read-out: Visual Growth Reduction (%) 14 Days After Application, CIRAR
row,SMILES,pest or weed control at 140 g/ha
1,"COC(=O)c1nc(-c2ccc(C(F)(F)F)cc2OC)ccc1Cl [F28, Methyl 3-chloro-6-(2-methoxy-4-(trifluoromethyl)phenyl)picolinate]",75 to 84%
2,"COC(=O)c1nc(-c2ccc(OC)cc2Cl)ccc1Cl [F35, Methyl 3-chloro-6-(2-chloro-4-methoxyphenyl) picolinate]",0 to 29%

# Same assay, conditions: post-emergence, 336 h, CYPES: yellow nutsedge (Cyperus esculentus), 140 g ai/ha, 14 days after application, read-out: Visual Growth Reduction (%) 14 Days After Application, CYPES
row,SMILES,pest or weed control at 140 g/ha
1,"COC(=O)c1nc(-c2ccc(C(F)(F)F)cc2OC)ccc1Cl [F28, Methyl 3-chloro-6-(2-methoxy-4-(trifluoromethyl)phenyl)picolinate]",0 to 29%
2,"COC(=O)c1nc(-c2ccc(OC)cc2Cl)ccc1Cl [F35, Methyl 3-chloro-6-(2-chloro-4-methoxyphenyl) picolinate]",0 to 29%

# Same assay, conditions: post-emergence, 336 h, DIGSA: crabgrass (Digitaria sanguinalis), 140 g ai/ha, 14 days after application, read-out: Visual Growth Reduction (%) 14 Days After Application, DIGSA
row,SMILES,pest or weed control at 140 g/ha
1,"COC(=O)c1nc(-c2ccc(C(F)(F)F)cc2OC)ccc1Cl [F28, Methyl 3-chloro-6-(2-methoxy-4-(trifluoromethyl)phenyl)picolinate]",45 to 59%
2,"COC(=O)c1nc(-c2ccc(OC)cc2Cl)ccc1Cl [F35, Methyl 3-chloro-6-(2-chloro-4-methoxyphenyl) picolinate]",0 to 29%

# Same assay, conditions: post-emergence, 336 h, ECHCG: barnyardgrass (Echinochloa crus-galli), 140 g ai/ha, 14 days after application, read-out: Visual Growth Reduction (%) 14 Days After Application, ECHCG
row,SMILES,pest or weed control at 140 g/ha
1,"COC(=O)c1nc(-c2ccc(C(F)(F)F)cc2OC)ccc1Cl [F28, Methyl 3-chloro-6-(2-methoxy-4-(trifluoromethyl)phenyl)picolinate]",0 to 29%
2,"COC(=O)c1nc(-c2ccc(OC)cc2Cl)ccc1Cl [F35, Methyl 3-chloro-6-(2-chloro-4-methoxyphenyl) picolinate]",0 to 29%

# Same assay, conditions: post-emergence, 336 h, IPOHE: ivy-leaf morning glory (Ipomoea hederacea), 140 g ai/ha, 14 days after application, read-out: Visual Growth Reduction (%) 14 Days After Application, IPOHE
row,SMILES,pest or weed control at 140 g/ha
1,"COC(=O)c1nc(-c2ccc(C(F)(F)F)cc2OC)ccc1Cl [F28, Methyl 3-chloro-6-(2-methoxy-4-(trifluoromethyl)phenyl)picolinate]",95 to 100%
2,"COC(=O)c1nc(-c2ccc(OC)cc2Cl)ccc1Cl [F35, Methyl 3-chloro-6-(2-chloro-4-methoxyphenyl) picolinate]",0 to 29%

# Same assay, conditions: post-emergence, 336 h, KCHSC: kochia (Bassia scoparia), 140 g ai/ha, 14 days after application, read-out: Visual Growth Reduction (%) 14 Days After Application, KCHSC
row,SMILES,pest or weed control at 140 g/ha
1,"COC(=O)c1nc(-c2ccc(C(F)(F)F)cc2OC)ccc1Cl [F28, Methyl 3-chloro-6-(2-methoxy-4-(trifluoromethyl)phenyl)picolinate]",30 to 44%
2,"COC(=O)c1nc(-c2ccc(OC)cc2Cl)ccc1Cl [F35, Methyl 3-chloro-6-(2-chloro-4-methoxyphenyl) picolinate]",0 to 29%

# Same assay, conditions: post-emergence, 336 h, ORYSA: rice (Oryza sativa), 140 g ai/ha, 14 days after application, read-out: Visual Growth Reduction (%) 14 Days After Application, ORYSA
row,SMILES,pest or weed control at 140 g/ha
1,"COC(=O)c1nc(-c2ccc(C(F)(F)F)cc2OC)ccc1Cl [F28, Methyl 3-chloro-6-(2-methoxy-4-(trifluoromethyl)phenyl)picolinate]",0 to 29%
2,"COC(=O)c1nc(-c2ccc(OC)cc2Cl)ccc1Cl [F35, Methyl 3-chloro-6-(2-chloro-4-methoxyphenyl) picolinate]",0 to 29%

# Same assay, conditions: post-emergence, 336 h, SETFA: giant foxtail (Setaria faberi), 140 g ai/ha, 14 days after application, read-out: Visual Growth Reduction (%) 14 Days After Application, SETFA
row,SMILES,pest or weed control at 140 g/ha
1,"COC(=O)c1nc(-c2ccc(C(F)(F)F)cc2OC)ccc1Cl [F28, Methyl 3-chloro-6-(2-methoxy-4-(trifluoromethyl)phenyl)picolinate]",30 to 44%
2,"COC(=O)c1nc(-c2ccc(OC)cc2Cl)ccc1Cl [F35, Methyl 3-chloro-6-(2-chloro-4-methoxyphenyl) picolinate]",0 to 29%

# Same assay, conditions: post-emergence, 336 h, SORVU: grain sorghum (Sorghum vulgare), 140 g ai/ha, 14 days after application, read-out: Visual Growth Reduction (%) 14 Days After Application, SORVU
row,SMILES,pest or weed control at 140 g/ha
1,"COC(=O)c1nc(-c2ccc(C(F)(F)F)cc2OC)ccc1Cl [F28, Methyl 3-chloro-6-(2-methoxy-4-(trifluoromethyl)phenyl)picolinate]",75 to 84%
2,"COC(=O)c1nc(-c2ccc(OC)cc2Cl)ccc1Cl [F35, Methyl 3-chloro-6-(2-chloro-4-methoxyphenyl) picolinate]",0 to 29%

# Same assay, conditions: post-emergence, 336 h, STEME: common chickweed (Stellaria media), 140 g ai/ha, 14 days after application, read-out: Visual Growth Reduction (%) 14 Days After Application, STEME
row,SMILES,pest or weed control at 140 g/ha
1,"COC(=O)c1nc(-c2ccc(C(F)(F)F)cc2OC)ccc1Cl [F28, Methyl 3-chloro-6-(2-methoxy-4-(trifluoromethyl)phenyl)picolinate]",0 to 29%
2,"COC(=O)c1nc(-c2ccc(OC)cc2Cl)ccc1Cl [F35, Methyl 3-chloro-6-(2-chloro-4-methoxyphenyl) picolinate]",0 to 29%

# Same assay, conditions: post-emergence, 336 h, TRZAS: wheat, spring (Triticum aestivum), 140 g ai/ha, 14 days after application, read-out: Visual Growth Reduction (%) 14 Days After Application, TRZAS
row,SMILES,pest or weed control at 140 g/ha
1,"COC(=O)c1nc(-c2ccc(C(F)(F)F)cc2OC)ccc1Cl [F28, Methyl 3-chloro-6-(2-methoxy-4-(trifluoromethyl)phenyl)picolinate]",0 to 29%
2,"COC(=O)c1nc(-c2ccc(OC)cc2Cl)ccc1Cl [F35, Methyl 3-chloro-6-(2-chloro-4-methoxyphenyl) picolinate]",0 to 29%
